Source: patent US11235001B2, “RUNX inhibitor” (KYOTO UNIVERSITY, priority 2016, dated 2022)
Where two headings read alike, the source gives them in different places.

Legend:
[1] = tested on: BCL11A, TRIM24, p53, p21, BAX, PUMA and MDM2; test: qRT-PCR of p53 suppressors and p53 target genes in MV4-11 cells; type: cell-based, human; settings: 1 μM, 6 hours
Procedure: A total RNA was isolated with RNeasy mini kit (Qiagen) and reverse transcribed with Reverse script kit (TOYOBO) to generate cDNA. Real-time quantitative polymerase chain reaction (PCR) was carried out with 7500 Real-Time PCR System (Applied Biosystems) according to the manufacturer's instructions. Results were normalized to GAPDH levels. Relative expression levels were calculated using the 2-ΔΔCt method.

MYL cells = test: PI-AnnexinV apoptosis staining, MYL cells; type: cell-based, human; settings: 1.5 μM or 3 μM, 48 hours, dependent on concentration
Procedure: In addition, 1.5 μM or 3 μM of Chb-M′ was administered to MYL cells. After 48 hours, the percentage of apoptosis was analyzed by PI-AnnexinV apoptosis staining. As a result, early apoptosis rates were increased dependent on the concentration of Chb-M′ (FIG. 26-4).

ABC-1 = test: Cell viability, lung adenocarcinoma ABC-1; type: cell-based, human; settings: ABC-1 (EGFR wild-type p53-mutated), 48 hours
Mig6 = test: Western blotting of Mig6 in lung adenocarcinoma cells; type: cell-based, human; settings: 1 μM, 24 hours
Procedure: Cells were washed twice with ice cold phosphate-buffered saline (PBS) and harvested in protein lysis buffer [50 mM Tris (pH 7.4), 100 mM NaCl, 0.1 mM EDTA, 1 mM phenylmethylsulfonyl fluoride, 1 mM β-glycerophosphate, 2.5 mM sodium pyrophosphate, 1 mM Na3VO4, lx protease inhibitor (Roche) and PhosSTOP (Roche)]. Whole cell extracts were separated by SDS-polyacrylamide gel electrophoresis (SDS-PAGE) and electrotransferred onto polyvinylidene difluoride membranes. […] Blots were detected using Chemi-Lumi One Super (nacalai tesque, Inc.) and ChemiDoc™ XRS+ Imager (Bio-Rad Laboratories, Inc.), as recommended by the manufacturers. Protein levels were quantified with Image Lab Software (Bio-Rad Laboratories, Inc.).
To LU99A cells and A549 cells, 1 μM Chb-M′ was administered. After 24 hours, the expression of Mig6 protein was evaluated by the Western blotting method (see the above-described “Immunoblotting”). […]

[2] = tested on: c-kit, phospho-c-Kit, AKT, phosphorylated AKT, Mitf; test: Western blot of KIT signalling, LAD2 mast cells; type: cell-based, human; settings: LAD2, 10 μM, 18 hours
Procedure: Cells were washed twice with ice cold phosphate-buffered saline (PBS) and harvested in protein lysis buffer [50 mM Tris (pH 7.4), 100 mM NaCl, 0.1 mM EDTA, 1 mM phenylmethylsulfonyl fluoride, 1 mM β-glycerophosphate, 2.5 mM sodium pyrophosphate, 1 mM Na3VO4, lx protease inhibitor (Roche) and PhosSTOP (Roche)]. Whole cell extracts were separated by SDS-polyacrylamide gel electrophoresis (SDS-PAGE) and electrotransferred onto polyvinylidene difluoride membranes. Membranes were probed with the following antibodies: anti-Ctip1 antibody (Abcam, ab19487), anti-TRIM24 antibody (Bethyl Laboratories, Inc), anti-RUNX1 antibody (A-2), anti-GAPDH (FL-335), anti-p21 (C-19), anti-Bax (N-20) antibodies (Santa Cruz Biotechnology, Inc.), anti-RUNX2, anti-RUNX3, anti-p53 antibodies (Cell Signaling Technology), anti-CBFβ antibody (FL-182, Santa Cruz Biotechnology, Inc.), anti-cleaved caspase-3 antibody (5A1E, Cell Signaling Technology), anti-PARP antibody (46D11, Cell Signaling Technology). For secondary antibodies, anti-rabbit IgG, or anti-mosue IgG HRP-linked antibodies (Cell Signaling Technology) were used. Blots were detected using Chemi-Lumi One Super (nacalai tesque, Inc.) and ChemiDoc™ XRS+ Imager (Bio-Rad Laboratories, Inc.), as recommended by the manufacturers. Protein levels were quantified with Image Lab Software (Bio-Rad Laboratories, Inc.).
To the LAD2 cell line and the HMC-1.2 cell line, 10 μM Chb-M′ was administered. After culturing the cells for 18 hours, extracts were obtained from the cells, and the protein expression levels of c-kit, phospho-c-Kit, AKT, phosphorylated AKT, Mitf, and GAPDH were analyzed by the Western blot analysis (see the above-described “Immunoblotting”) using different antibodies. AKT is an important signaling protein downstream of c-kit. Mitf is a representative transcriptional driver for c-kit. As a control, DMSO was administered. In the figure, “KIT” indicates c-kit, “pKIT” indicates phosphorylated c-kit, and “pAKT” indicates phosphorylated AKT. As primary antibodies, an anti-c-Kit antibody (Ab81, manufactured by Cell Signaling Technology), an anti-phospho-c-Kit (Tyr719) antibody (manufactured by Cell Signaling Technology), an anti-Akt antibody (manufactured by Cell Signaling Technology), an anti-phospho-Akt antibody (Ser473) (manufactured by Cell Signaling Technology), an anti-Mitf antibody (manufactured by Cosmo Bio), and an anti-GAPDH antibody (0411, manufactured by Santa Cruz Biotechnology, Inc.) were used. As secondary antibodies, an ECL™ anti-mouse IgG horseradish peroxidase-linked whole antibody (manufactured by GE Healthcare) and an ECL™ anti-rabbit IgG linked whole antibody (manufactured by GE Healthcare) were used.

DU-145 cells = settings: read-out: IC50 (μM) in DU-145 cells; DU-145 (androgen-independent), 48 hours

CN(C)CCCNC(=O)c1cc(NC(=O)c2cc(NC(=O)c3cc(NC(=O)c4cc(NC(=O)CCCNC(=O)c5nc(NC(=O)c6nc(NC(=O)c7cc(NC(=O)c8nc(NC(=O)CCNC(=O)CCCc9ccc(N(CCCl)CCCl)cc9)cn8C)cn7C)cn6C)cn5C)cn4C)cn3C)cn2C)cn1C [Chb-M′]
Gene expressions of p53 suppressors BCL11A and TRIM24 [1]: down-regulated | mRNA expression level of p53 [1]: unchanged | mRNA expression levels of p21 and PUMA [1]: increased | Early apoptosis rates (MYL cells): increased | IC50 compared with the EGFR inhibitor (gefitinib) (ABC-1): lower IC50 values | Expression level of Mig6 protein (Mig6; A549 cells): enhanced | Expression level of Mig6 protein (Mig6; LU99A cells): enhanced | Expression of c-kit protein [2]: suppressed | Level of phosphorylated AKT protein [2]: decreased | Protein expression level of Mitf [2]: not affected | Total amount of AKT [2]: not considerably changed | phospho-c-Kit protein [2]: suppressed | IC50 (DU-145 cells): 1.82 µM | IC50 (NB4 (p53MT); culture time 48 hours): 357 nM | IC50 (NB4 (p53MT); culture time 72 hours): 44.6 nM
